Patent US20070104652A1, “Pharmaceutical spray formulation comprising a hydro fluor alkane and an acylated cyclodextrin” (priority 2003, published 2007)

What was measured:
[1] = Efficacy of peracetylated beta cyclodextrin as HFA drug suspension stabiliser (phase separation recorded photographically); type: physicochemical; details: peracetylated β cyclodextrin at saturation level, phase separation much slower, suspension much finer, head space adhesion less
Experimental: First, reference samples of pure drugs in HFAs were prepared. Then samples with solubilised peracetylated beta (β) cyclodextrin and micronised drug were prepared. The concentration of drug in these samples was the same as in the reference samples. The cyclodextrin concentration was at saturation level.
The reference samples (pure drug) were prepared by weighing the drug in a PET vial. A valve was then crimped on the vial and propellant added under pressure. The vial was then sonicated for at least 15 minutes and left to equilibrate for one week.
The drug—cyclodextrin samples were prepared by weighing a known amount of drug in a PET vial. The vial was then crimped with a continuous valve. The solution of peracetylated beta (β) cyclodextrin was prepared thus: a large amount of cyclodextrin was placed in large metallic can, it was crimped and filled with one of the propellants. This can was left to equilibrate for at least a week at room temperature. When equilibration was reached, the saturated cyclodextrin solution was filtered through a […] PTFE filter into the PET vials containing the known drug amounts. This way the maximum amount of soluble cyclodextrin was used in the suspensions. The concentration of drugs in the vials was then calculated through accurate recording of the weights of propellant/cyclodextrin added.
The phase separation phenomenon present in both samples (pure drug and with the cyclodextrin) was then recorded photographically.

[2] = Solubility of peracetylated cyclodextrins in HFA propellants, assessed visually; type: physicochemical; details: equilibrated one week, visual; for solubility in HFA 134a: room temperature; for solubility in HFA 227: HFA 227, room temperature
Experimental: The solubility of peracetylated cyclodextrins (alpha, beta and gamma) in HFA propellants was assessed visually in clear PET vials crimped with a continuous pMDI valve. Known amounts of cyclodextrins were weighed into the PET vials. Continuous valves were crimped on the vial, and HFAs were added under pressure to the required amount. The samples were left to equilibrate over one week and were visually inspected. The solubility of the modified cyclodextrin at room temperature was evaluated by discriminating between samples that were clear by opposition to those samples that still had solid particles in suspension.

quality/stability of drug suspension with modified cyclodextrin versus pure drug sample ([1]; HFA 134a) | quality/stability of drug suspension with modified cyclodextrin versus pure drug sample ([1]; HFA 227) | solubility in HFA 134a [2] | solubility in HFA 227 [2] | Compound
improved | much improved | – | – | CCCC1O[C@@H]2C[C@H]3[C@@H]4CCC5=CC(=O)C=C[C@]5(C)[C@H]4[C@@H](O)C[C@]3(C)[C@]2(C(=O)CO)O1 (some centres unmarked) [Budesonide]
much improved | far more stable | – | – | CC(C)(C)NCC(O)c1cc(O)cc(O)c1 (centres unmarked) [Terbutaline Sulphate]
– | – | above 1 % w/w | above 0.5 % w/w | CC(=O)OCC1OC2OC3C(COC(C)=O)OC(OC4C(COC(C)=O)OC(OC5C(COC(C)=O)OC(OC6C(COC(C)=O)OC(OC7C(COC(C)=O)OC(OC1C(OC(C)=O)C2OC(C)=O)C(OC(C)=O)C7OC(C)=O)C(OC(C)=O)C6OC(C)=O)C(OC(C)=O)C5OC(C)=O)C(OC(C)=O)C4OC(C)=O)C(OC(C)=O)C3OC(C)=O (stereo not drawn) [peracetylated alpha (α) cyclodextrin]
– | – | above 1 % w/w | above 0.1 % w/w | peracetylated beta (β) cyclodextrin
